Reference: PubChem BioAssay AID256 (DTP/NCI, 2004)
Inconclusive results and toxic doses are left out. The calls were made as follows: active = survival T/C of 150% or more; inactive = T/C below 125% in these data.

Test system: CD2F1 mice, L1210 leukemia ip, survival T/C
Assay: NCI In Vivo Anticancer Drug Screen. Data for tumor model L1210 Leukemia (intraperitoneal) in CD2F1 (CDF1) mice
Conditions: higher = longer survival
Outline: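 Vehicle-treated tumor-bearing mice served as controls (C) for compound-treated mice (T). Reported figure is T divided by C.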

[1] = endpoint: mean survival time, dose: 100.0 mg/kg/injection, schedule: Q04DX003 (ip), vehicle: saline with Tween-80
[2] = endpoint: mean survival time, dose: 200.0 mg/kg/injection, schedule: Q04DX003 (ip), vehicle: saline with Tween-80
[3] = endpoint: mean survival time, dose: 100.0 mg/kg/injection, schedule: Q01DX001 (ip), vehicle: saline
[4] = endpoint: mean survival time, dose: 200.0 mg/kg/injection, schedule: Q01DX001 (ip), vehicle: saline
[5] = endpoint: mean survival time, dose: 400.0 mg/kg/injection, schedule: Q01DX001 (ip), vehicle: saline
[6] = endpoint: mean survival time, dose: 50.0 mg/kg/injection, schedule: Q01DX009 (ip), vehicle: Klucel (hydroxypropylcellulose) (HPC)
[7] = endpoint: mean survival time, dose: 400.0 mg/kg/injection, schedule: Q04DX003 (ip), vehicle: saline with Tween-80
[8] = endpoint: mean survival time, dose: 100.0 mg/kg/injection, schedule: Q01DX009 (ip), vehicle: saline with Tween-80
[9] = endpoint: mean survival time, dose: 200.0 mg/kg/injection, schedule: Q01DX009 (ip), vehicle: saline with Tween-80
[10] = endpoint: mean survival time, dose: 400.0 mg/kg/injection, schedule: Q01DX009 (ip), vehicle: saline with Tween-80

Measured: T/C

CCOC(=O)C#Cc1cccc(C(=O)OC)c1-c1c(I)cccc1C(=O)OC
inactive: endpoint: median survival time, dose: 12.5 mg/kg/injection, schedule: Q04DX003 (ip), vehicle: saline with Tween-80 100 % of control | endpoint: median survival time, dose: 25.0 mg/kg/injection, schedule: Q04DX003 (ip), vehicle: saline with Tween-80 100 % of control | endpoint: median survival time, dose: 50.0 mg/kg/injection, schedule: Q04DX003 (ip), vehicle: saline with Tween-80 88 % of control | endpoint: median survival time, dose: 100.0 mg/kg/injection, schedule: Q04DX003 (ip), vehicle: saline with Tween-80 88 % of control

CC(C)CCCC(C)C1CCC2C3CC(CO)C4CC(O)CCC4(C)C3CCC12C (stereo not drawn)
inactive: [1] 87 % of control | [2] 88 % of control

C1CCC2[N-]CCCC2C1.C1CCC2[N-]CCCC2C1.[Cl][Pt+2][Cl] (stereo not drawn)
inactive: endpoint: median survival time, dose: 3.12 mg/kg/injection, schedule: Q04DX003 (ip), vehicle: saline 102 % of control | endpoint: median survival time, dose: 6.25 mg/kg/injection, schedule: Q04DX003 (ip), vehicle: saline 98 % of control | endpoint: median survival time, dose: 12.5 mg/kg/injection, schedule: Q04DX003 (ip), vehicle: saline 101 % of control | endpoint: median survival time, dose: 25.0 mg/kg/injection, schedule: Q04DX003 (ip), vehicle: saline 105 % of control | endpoint: median survival time, dose: 50.0 mg/kg/injection, schedule: Q04DX003 (ip), vehicle: saline 103 % of control | endpoint: median survival time, dose: 100.0 mg/kg/injection, schedule: Q04DX003 (ip), vehicle: saline 94 % of control | endpoint: median survival time, dose: 200.0 mg/kg/injection, schedule: Q04DX003 (ip), vehicle: saline 100 % of control

CC1/C(=N\Nc2ccc([N+](=O)[O-])cc2[N+](=O)[O-])CCC2C1(C)CCC1C2(C)CCC2(C)C3CC(C)(C)CCC3(C)CCC12C (stereo not drawn)
inactive: [3] 97 % of control | [4] 97 % of control | [5] 97 % of control

CC(=O)OCC1OC([S][Sb]([CH3])[CH3])C(OC(C)=O)C(OC(C)=O)C1OC(C)=O (stereo not drawn)
inactive: [6] 92 % of control

CSC(SC)=C(C#N)C#N
inactive: endpoint: mean survival time, dose: 12.5 mg/kg/injection, schedule: Q04DX002 (ip), vehicle: saline 102 % of control | endpoint: mean survival time, dose: 25.0 mg/kg/injection, schedule: Q04DX002 (ip), vehicle: saline 94 % of control | endpoint: mean survival time, dose: 50.0 mg/kg/injection, schedule: Q04DX002 (ip), vehicle: saline 92 % of control

CC(C)OC(=O)CC#N
inactive: [1] 96 % of control | [2] 105 % of control | [7] 96 % of control

COc1ccc(C2NCCc3cc(OC)c(OC)cc32)cc1OC (stereo not drawn)
inactive: endpoint: mean survival time, dose: 12.5 mg/kg/injection, schedule: Q01DX009 (ip), vehicle: water 98 % of control | endpoint: mean survival time, dose: 25.0 mg/kg/injection, schedule: Q01DX009 (ip), vehicle: water 98 % of control | endpoint: mean survival time, dose: 50.0 mg/kg/injection, schedule: Q01DX009 (ip), vehicle: water 98 % of control | endpoint: mean survival time, dose: 100.0 mg/kg/injection, schedule: Q01DX009 (ip), vehicle: water 106 % of control

CC[N+](C)(CC)Cc1ccc([NH-])c([NH-])c1.[Cl][Pt+2][Cl]
inactive: endpoint: mean survival time, dose: 3.13 mg/kg/injection, schedule: Q04DX003 (ip), vehicle: water 90 % of control | endpoint: mean survival time, dose: 6.25 mg/kg/injection, schedule: Q04DX003 (ip), vehicle: water 95 % of control | endpoint: mean survival time, dose: 12.5 mg/kg/injection, schedule: Q04DX003 (ip), vehicle: water 94 % of control

NC(=O)c1n[nH]c(C2OC(CO)C(O)C2O)n1 (stereo not drawn)
inactive: endpoint: mean survival time, dose: 12.5 mg/kg/injection, schedule: Q01DX005 (ip), vehicle: water 94 % of control | endpoint: mean survival time, dose: 25.0 mg/kg/injection, schedule: Q01DX005 (ip), vehicle: water 92 % of control | endpoint: mean survival time, dose: 50.0 mg/kg/injection, schedule: Q01DX005 (ip), vehicle: water 94 % of control | endpoint: mean survival time, dose: 100.0 mg/kg/injection, schedule: Q01DX005 (ip), vehicle: water 94 % of control | endpoint: mean survival time, dose: 200.0 mg/kg/injection, schedule: Q01DX005 (ip), vehicle: water 96 % of control

C[N+](C)(CC(=O)Nc1ccc(Cl)c(Cl)c1)CC(=O)c1ccc(Cl)cc1
inactive: endpoint: mean survival time, dose: 25.0 mg/kg/injection, schedule: Q01DX009 (ip), vehicle: saline 87 % of control

CCC(C)NC(=O)Nc1ccccc1C(F)(F)F (stereo not drawn)
inactive: endpoint: mean survival time, dose: 100.0 mg/kg/injection, schedule: Q01DX001 (ip), vehicle: saline with Tween-80 106 % of control | [8] 92 % of control | endpoint: mean survival time, dose: 200.0 mg/kg/injection, schedule: Q01DX001 (ip), vehicle: saline with Tween-80 95 % of control | [9] 88 % of control | endpoint: mean survival time, dose: 400.0 mg/kg/injection, schedule: Q01DX001 (ip), vehicle: saline with Tween-80 89 % of control | [10] 94 % of control

CCCCCCCCCCCC(C)CC(CN)C(=O)OCC (stereo not drawn)
inactive: endpoint: mean survival time, dose: 100.0 mg/kg/injection, schedule: Q04DX002 (ip), vehicle: saline 92 % of control | endpoint: mean survival time, dose: 200.0 mg/kg/injection, schedule: Q04DX002 (ip), vehicle: saline 100 % of control | endpoint: mean survival time, dose: 400.0 mg/kg/injection, schedule: Q04DX002 (ip), vehicle: saline 100 % of control

C[Si](C)(C)Oc1ccc(O[Si](C)(C)C)cc1
inactive: endpoint: mean survival time, dose: 100.0 mg/kg/injection, schedule: Q04DX003 (ip), vehicle: other 109 % of control | endpoint: mean survival time, dose: 200.0 mg/kg/injection, schedule: Q04DX003 (ip), vehicle: other 97 % of control | endpoint: mean survival time, dose: 400.0 mg/kg/injection, schedule: Q04DX003 (ip), vehicle: other 106 % of control

O=c1o[nH]c(-c2ccccc2)c1-c1ccccc1
inactive: endpoint: mean survival time, dose: 50.0 mg/kg/injection, schedule: Q04DX003 (ip), vehicle: saline with Tween-80 95 % of control | [1] 98 % of control | [2] 106 % of control

CCCCOC(=O)c1ccc(NC(=O)Nc2cc([N+](=O)[O-])ccc2C)cc1
inactive: [6] 101 % of control | endpoint: mean survival time, dose: 100.0 mg/kg/injection, schedule: Q01DX009 (ip), vehicle: Klucel (hydroxypropylcellulose) (HPC) 89 % of control | endpoint: mean survival time, dose: 200.0 mg/kg/injection, schedule: Q01DX009 (ip), vehicle: Klucel (hydroxypropylcellulose) (HPC) 104 % of control

CC(=O)OCCc1nnnn1C
inactive: [8] 101 % of control | [1] 104 % of control | [9] 104 % of control | [2] 104 % of control | [10] 104 % of control | [7] 101 % of control

BrC1CCCC1
inactive: [3] 100 % of control | [4] 102 % of control | [5] 102 % of control

COc1cc([N+](=O)[O-])ccc1P(=O)(O)O
inactive: endpoint: mean survival time, dose: 50.0 mg/kg/injection, schedule: Q04DX003 (ip), vehicle: saline 101 % of control | endpoint: mean survival time, dose: 100.0 mg/kg/injection, schedule: Q04DX003 (ip), vehicle: saline 97 % of control | endpoint: mean survival time, dose: 200.0 mg/kg/injection, schedule: Q04DX003 (ip), vehicle: saline 91 % of control

CN(C)C=NCCc1ccccc1
inactive: endpoint: mean survival time, dose: 50.0 mg/kg/injection, schedule: Q01DX001 (ip), vehicle: saline 97 % of control

C[PH+](CC[PH+](c1ccccc1)c1ccccc1)c1ccccc1.[C-]#[O+].[C-]#[O+].[C-]#[O+].[C-]#[O+].[Mo] (stereo not drawn)
inactive: endpoint: mean survival time, dose: 25.0 mg/kg/injection, schedule: Q04DX002 (ip), vehicle: saline with Tween-80 93 % of control | endpoint: mean survival time, dose: 50.0 mg/kg/injection, schedule: Q04DX002 (ip), vehicle: saline with Tween-80 89 % of control | endpoint: mean survival time, dose: 100.0 mg/kg/injection, schedule: Q04DX002 (ip), vehicle: saline with Tween-80 89 % of control

CC(C)CP(=O)(CC(C)C)CC(C)C
inactive: endpoint: mean survival time, dose: 1.56 mg/kg/injection, schedule: Q04DX003 (ip), vehicle: saline with Tween-80 98 % of control | endpoint: mean survival time, dose: 3.13 mg/kg/injection, schedule: Q04DX003 (ip), vehicle: saline with Tween-80 98 % of control | endpoint: mean survival time, dose: 6.25 mg/kg/injection, schedule: Q04DX003 (ip), vehicle: saline with Tween-80 101 % of control

COc1ccc(C(=O)NCCc2ccc(OC)c(OC)c2)cc1O
inactive: endpoint: mean survival time, dose: 12.5 mg/kg/injection, schedule: Q01DX009 (ip), vehicle: other 100 % of control | endpoint: mean survival time, dose: 25.0 mg/kg/injection, schedule: Q01DX009 (ip), vehicle: other 94 % of control | endpoint: mean survival time, dose: 50.0 mg/kg/injection, schedule: Q01DX009 (ip), vehicle: other 96 % of control | endpoint: mean survival time, dose: 100.0 mg/kg/injection, schedule: Q01DX009 (ip), vehicle: other 90 % of control | endpoint: mean survival time, dose: 200.0 mg/kg/injection, schedule: Q01DX009 (ip), vehicle: other 96 % of control
